Experimental data from patent US20210123061A1, “METHODS AND COMPOSITIONS FOR TREATING INFLAMMATORY DISEASE OR DISORDER” (THE BRIGHAM AND WOMEN'S HOSPITAL, INC., priority 2018, published 2021).

System: STAT1-pSer727
Assay: Anti-STAT1-pSer727 immunoprecipitation with parallel reaction monitoring mass spectrometry
Assay type: cell-based, human
Conditions: versus IFN-γ (plus DMSO) alone
Protocol: FIGS. 3A-3F show RSK1 is activated through JAK signaling and its inhibition suppresses STAT1 phosphorylation at Ser727 in human primary macrophages in response to IFN-γ. (FIG. 3A) PBMC-derived macrophages were pre-treated with DMSO or 10 μM a pan-JAK inhibitor, pyridone-6, for two hours and then stimulated with IFN-γ for indicated time under serum starvation. Cell lysates were subjected to immunoprecipitation with normal IgG or anti-RSK1 followed by immunoblot analysis using the indicated antibodies. WCL, whole cell lysate. N=3 donors. […] (FIG. 3D) Densitometric based quantification (ImageJ Software) of STAT1-pSer727 in panel (FIG. 3C) plus three additional donors. […] (FIG. 3F) Quantification of PRM ions (MS/MS ions) of the indicated STAT1 peptide harboring a phosphorylation at Ser727 (and oxidized methionine, m), generated from the digest of panel […].
Anti-STAT1-pSer727 IPs—The STAT1 peptide with phosphorylation at Ser727 was detected on the Orbitrap Fusion Lumos. […]
Anti-STAT1-pSer727 IPs—The three most abundant fragment ions of the target peptide (LQTTDNLLPmsPEEFDEVSR (SEQ ID NO: 5)-m10-oxidation, s11-phosphorylation, 806.3575 m/z, z=3) as annotated by SEQUEST (PD2.1) were used for quantification: y12^2+, 759.79455 m/z; c12^+, 1424.64911 m/z; b8^+, 899.48327 m/z. AUC of each fragment was calculated using the Skyline software (https://skyline.gs.washington.edu). […]

Structure (SMILES): CC(C)CCN1c2nc(Nc3cc(F)c(O)c(F)c3)ncc2N(C)C(=O)C1C (centres unmarked) [BI-D1870]
- STAT1-pSer727 recovered post-immunoprecipitation: less
- pSer727 site-specific signal, PRM of three EThcD fragment ions: decrease in signal
